Results taken from patent publication US11214536B2, “Polymorphs and uses thereof” (Inspirna, Inc., priority 2017, dated 2022).

Assay: Dynamic Vapor Sorption (DVS), hygroscopicity, with XRPD of the post-DVS solid
Format: physicochemical
Details: for mass uptake at 90% RH by DVS analysis: 25° C., DVS sorption/desorption cycles; for hygroscopic nature by DVS analysis: assessed from mass uptake at 90% RH; for solid form of the post-DVS sample (XRPD): XRPD analysis on solid retained after DVS
Protocol: Approximately, 10-20 mg of sample was placed into a mesh vapor sorption balance pan and loaded into a DVS Advantage dynamic vapor sorption balance by Surface Measurement Systems. The sample was subjected to a ramping profile from 40-90% relative humidity (RH) at 10% increments, maintaining the sample at each step until a stable weight had been achieved (dm/dt 0.004%, minimum step length 30 minutes, maximum step length 500 minutes) at 25° C. After completion of the sorption cycle, the sample was dried using the same procedure to 0% RH and then a second sorption cycle back to 40% RH. Two cycles were performed. The weight change during the sorption/desorption cycles were plotted, allowing for the hygroscopic nature of the sample to be determined. XRPD analysis was then carried out on any solid retained.

Row | mass uptake at 90% RH by DVS analysis | hygroscopic nature by DVS analysis | solid form of the post-DVS sample (XRPD) | mass uptake at 90% RH by DVS analysis (listed as amorphous compound) | Compound
1 | about 1.16% | slightly hygroscopic | no change in the solid form |  | CC(CCOc1cccc(CC(=O)O)c1)N(Cc1cccc(C(F)(F)F)c1Cl)CC(c1ccccc1)c1ccccc1 (stereo not shown) [Form 4]
2 | about 2.7% | slightly hygroscopic | partially amorphous Form 5 material |  | CC(CCOc1cccc(CC(=O)O)c1)N(Cc1cccc(C(F)(F)F)c1Cl)CC(c1ccccc1)c1ccccc1 (stereo not shown) [Form 5]
3 | about 2.3% | slightly hygroscopic | no significant change in the solid form |  | CC(CCOc1cccc(CC(=O)O)c1)N(Cc1cccc(C(F)(F)F)c1Cl)CC(c1ccccc1)c1ccccc1 (stereo not shown) [Form 6]
4 | about 6.17% | highly hygroscopic | remained amorphous | about 6.17% | CC(CCOc1cccc(CC(=O)O)c1)N(Cc1cccc(C(F)(F)F)c1Cl)CC(c1ccccc1)c1ccccc1 (stereo not shown) [amorphous material]
